Reference: article PMC9488889, “Insight into mode-of-action and structural determinants of the compstatin family of clinical complement inhibitors” (Nature Communications, 2022)
Where two headings read alike, the source gives them in different places. Bridge positions count the residues as written; N and C are the ends. Square brackets hold non-standard residues; d marks the D form. Peptide text beside a SMILES is read from it. Trp(1-Me) = Cn1cc(C[C@H](N)C(=O)O)c2ccccc21; NMeI = CC[C@H](C)[C@H](NC)C(=O)O; Sar = CNCC(=O)O

Biological target: T1, C3b (Homo sapiens, UniProt P01024)
T1 construct: the α’NT, MG6^α−8, anchor, and C-terminal complement (CTC) domains of the α-chain that are all shared between C3c and C3b; purchased Complement Technology (Tyler, TX, USA)
T1 sequence (P01024 23-667 limits assumed): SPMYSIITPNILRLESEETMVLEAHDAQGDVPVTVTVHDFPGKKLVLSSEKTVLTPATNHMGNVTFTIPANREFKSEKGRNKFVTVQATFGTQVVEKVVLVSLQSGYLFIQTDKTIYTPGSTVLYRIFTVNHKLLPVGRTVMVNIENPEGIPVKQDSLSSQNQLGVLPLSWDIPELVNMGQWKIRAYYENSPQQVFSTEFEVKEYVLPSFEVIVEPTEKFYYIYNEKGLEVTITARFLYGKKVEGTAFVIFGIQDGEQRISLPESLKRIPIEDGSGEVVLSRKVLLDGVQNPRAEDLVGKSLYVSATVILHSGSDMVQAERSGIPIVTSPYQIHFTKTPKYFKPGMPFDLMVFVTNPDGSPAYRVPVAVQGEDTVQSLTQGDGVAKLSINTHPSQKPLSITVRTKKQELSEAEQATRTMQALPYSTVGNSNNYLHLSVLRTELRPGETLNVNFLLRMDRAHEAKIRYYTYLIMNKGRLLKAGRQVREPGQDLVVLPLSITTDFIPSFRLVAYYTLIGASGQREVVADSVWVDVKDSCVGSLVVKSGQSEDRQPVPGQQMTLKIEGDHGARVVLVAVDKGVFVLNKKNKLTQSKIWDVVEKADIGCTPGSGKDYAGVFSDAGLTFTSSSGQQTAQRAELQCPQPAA
T1 sequence (P01024 749-1663 limits assumed): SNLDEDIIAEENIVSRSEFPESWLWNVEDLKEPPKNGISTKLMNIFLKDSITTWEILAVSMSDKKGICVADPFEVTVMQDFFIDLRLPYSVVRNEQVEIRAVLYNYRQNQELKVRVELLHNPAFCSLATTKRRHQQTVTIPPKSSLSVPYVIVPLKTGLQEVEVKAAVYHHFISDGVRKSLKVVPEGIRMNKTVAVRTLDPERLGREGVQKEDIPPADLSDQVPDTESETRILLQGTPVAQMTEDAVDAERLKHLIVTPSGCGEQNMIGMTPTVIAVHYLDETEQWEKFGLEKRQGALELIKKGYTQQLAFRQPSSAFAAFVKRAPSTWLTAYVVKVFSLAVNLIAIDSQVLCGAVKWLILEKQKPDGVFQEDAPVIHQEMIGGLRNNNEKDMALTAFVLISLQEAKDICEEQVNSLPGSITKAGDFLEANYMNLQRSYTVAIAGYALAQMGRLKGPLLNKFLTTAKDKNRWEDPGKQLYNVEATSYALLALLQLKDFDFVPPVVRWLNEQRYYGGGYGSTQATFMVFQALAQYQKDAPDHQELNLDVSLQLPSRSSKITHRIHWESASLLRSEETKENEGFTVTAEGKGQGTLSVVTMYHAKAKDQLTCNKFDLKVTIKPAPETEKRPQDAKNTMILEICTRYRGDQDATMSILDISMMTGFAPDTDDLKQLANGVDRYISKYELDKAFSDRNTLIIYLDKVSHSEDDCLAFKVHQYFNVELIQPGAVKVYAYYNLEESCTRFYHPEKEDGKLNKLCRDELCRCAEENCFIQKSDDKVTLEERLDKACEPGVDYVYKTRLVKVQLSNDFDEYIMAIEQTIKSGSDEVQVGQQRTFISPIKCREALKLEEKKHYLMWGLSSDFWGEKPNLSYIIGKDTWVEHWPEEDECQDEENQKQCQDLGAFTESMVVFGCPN
Assay: SPR kinetic binding studies on immobilized C3b
Settings: for kd: Suppl. Fig. 7e, Cp40 analogs at position 5, three SPR experiments
Description: All compstatin analogues were characterized concerning affinity and kinetic profiles by surface plasmon resonance (SPR) using a Biacore T200 instrument (Cytiva, Piscataway, USA). Experiments were run at 25 °C in HBST buffer (10 mM HEPES, 150 mM NaCl, 0.05% Tween-20, pH 7.4). C3b was immobilized on a carboxymethyl dextran hydrogel chip (CMD200; XanTec, Düsseldorf, Germany) using standard amine coupling in sodium acetate buffer pH 4.5 at a flow rate of 10 µl/min. Immobilization densities of 8000 and 4000 resonance units (RU) were achieved on separate flow cells. A reference flow cell was activated with the same method (NHS/EDC). All active sites were inactivated and blocked with ethanolamine. A single cycle approach at a flow rate of 30 µl/min was used for kinetic analysis by injecting five increasing concentrations of each compound (0.5–40 nM) consecutively without regeneration in-between injections. Individual injections within a cycle were 120 s long with a 60 sec dissociation phase between injections. After the highest concentration of each derivative, a dissociation period of 6,000–14,400 sec was added to ensure complete dissociation in absence of suitable regeneration method. […] Signals from the reference cell from an ensemble of buffer blank injections were subtracted to correct for buffer effects and injection artefacts. Kinetic data was processed with the Biacore T200 Software (version 3.1; Cytiva) using a single-cycle evaluation setup by global fitting each data set to a 1:1 Langmuir binding model. Association and dissociation rate constants (ka and kd, respectively) were fitted, and the equilibration constant KD was calculated based on the following equation: KD = kd/ka. Each assay was performed at least twice and in duplicate injections.

[1] = Table 1, amine-reactive immobilized C3b, 25 °C, average±SD of three independent SPR experiments, read-out: KD
[2] = pH 7.4, read-out: ka, Dataset 1
[3] = pH 7.4, read-out: ka, Dataset 2
[4] = pH 7.4, read-out: ka, Dataset 3
[5] = source data of Table 1, single SPR dataset 1, read-out: KD, Dataset 1
[6] = source data of Table 1, single SPR dataset 2, read-out: KD, Dataset 2
[7] = source data of Table 1, single SPR dataset 3, read-out: KD, Dataset 3

SMILES	kd	kon (pH 7.4, read-out: ka) [M⁻¹ s⁻¹]	Kd [1] [nM]	kon [2] [M⁻¹ s⁻¹]	kon [3] [M⁻¹ s⁻¹]	kon [4] [M⁻¹ s⁻¹]	Kd [5] [nM]	Kd [6] [nM]	Kd [7] [nM]
CC[C@H](C)[C@H](NC(C)=O)C(=O)N[C@H]1CSSC[C@@H](C(=O)N(C)[C@H](C(N)=O)[C@@H](C)CC)NC(=O)[C@H](CCCNC(=N)N)NC(=O)[C@H](Cc2c[nH]cn2)NC(=O)[C@H](C)NC(=O)CN(C)C(=O)[C@H](Cc2c[nH]c3ccccc23)NC(=O)[C@H](CC(=O)O)NC(=O)[C@H](CCC(N)=O)NC(=O)[C@H](Cc2cn(C)c3ccccc23)NC(=O)[C@H](C(C)C)NC1=O [Cp20, reference compound]		1.3e+06 ± 300000	3.4 ± 0.6	1.63e+06	1.23e+06	960000	3.78	2.6	3.76
CC[C@H](C)[C@H](NC(=O)[C@H](N)Cc1ccc(O)cc1)C(=O)N[C@H]1CSSC[C@@H](C(=O)N(C)[C@H](C(N)=O)[C@@H](C)CC)NC(=O)[C@H](CCCNC(=N)N)NC(=O)[C@H](Cc2c[nH]cn2)NC(=O)[C@H](C)NC(=O)CN(C)C(=O)[C@H](Cc2c[nH]c3ccccc23)NC(=O)[C@H](CC(=O)O)NC(=O)[C@H](CCC(N)=O)NC(=O)[C@H](Cc2c[nH]c3ccccc23)NC(=O)[C@H](C(C)C)NC1=O [Cp40 (1MeW)5 W]		200000		130000	150000	180000			
CC[C@H](C)[C@H](NC(=O)[C@H](N)Cc1ccc(O)cc1)C(=O)N[C@H]1CSSC[C@@H](C(=O)N(C)[C@H](C(N)=O)[C@@H](C)CC)NC(=O)[C@H](CO)NC(=O)[C@H](Cc2c[nH]cn2)NC(=O)[C@H](C)NC(=O)CN(C)C(=O)[C@H](Cc2c[nH]c3ccccc23)NC(=O)[C@H](CO)NC(=O)[C@H](CCC(N)=O)NC(=O)[C@H](Cc2cn(C)c3ccccc23)NC(=O)[C@H](C(C)C)NC1=O [Cp40 D7S/R12S] (H-[dY]ICV[Trp(1-Me)]QSW[Sar]AHSC[NMeI]-NH2; disulfide 3-13)		100000	59.1 ± 41.3	20000	120000	220000	117	34.7	25.5
CC[C@H](C)[C@H](NC(=O)[C@H](N)Cc1ccc(O)cc1)C(=O)N[C@H]1CSSC[C@@H](C(=O)N(C)[C@H](C(N)=O)[C@@H](C)CC)NC(=O)[C@H](CCCNC(=N)N)NC(=O)[C@H](Cc2c[nH]cn2)NC(=O)[C@H](C)NC(=O)CN(C)C(=O)[C@H](Cc2c[nH]c3ccccc23)NC(=O)[C@H](CO)NC(=O)[C@H](CCC(N)=O)NC(=O)[C@H](Cc2cn(C)c3ccccc23)NC(=O)[C@H](C(C)C)NC1=O [Cp40 D7S] (H-[dY]ICV[Trp(1-Me)]QSW[Sar]AHRC[NMeI]-NH2; disulfide 3-13)		100000	5.6 ± 1.3	80000	50000	170000	4.85	7.48	4.45
CC[C@H](C)[C@H](NC(=O)[C@H](N)Cc1ccc(O)cc1)C(=O)N[C@H]1CSSC[C@@H](C(=O)N(C)[C@H](C(N)=O)[C@@H](C)CC)NC(=O)[C@H](CCCNC(N)=O)NC(=O)[C@H](Cc2c[nH]cn2)NC(=O)[C@H](C)NC(=O)CN(C)C(=O)[C@H](Cc2c[nH]c3ccccc23)NC(=O)[C@H](CC(=O)O)NC(=O)[C@H](CCC(N)=O)NC(=O)[C@H](Cc2cn(C)c3ccccc23)NC(=O)[C@H](C(C)C)NC1=O [Cp40 R12Cit]		600000 ± 100000		320000	670000	790000			
CC[C@H](C)[C@H](NC(=O)[C@H](N)Cc1ccc(O)cc1)C(=O)N[C@H]1CSSC[C@@H](C(=O)N(C)[C@H](C(N)=O)[C@@H](C)CC)NC(=O)[C@H](CCCCN)NC(=O)[C@H](Cc2c[nH]cn2)NC(=O)[C@H](C)NC(=O)CN(C)C(=O)[C@H](Cc2c[nH]c3ccccc23)NC(=O)[C@H](CC(=O)O)NC(=O)[C@H](CCC(N)=O)NC(=O)[C@H](Cc2cn(C)c3ccccc23)NC(=O)[C@H](C(C)C)NC1=O [Cp40 R12K] (H-[dY]ICV[Trp(1-Me)]QDW[Sar]AHKC[NMeI]-NH2; disulfide 3-13)				630000	470000	780000			
CC[C@H](C)[C@H](NC(=O)[C@H](N)Cc1ccc(O)cc1)C(=O)N[C@H]1CSSC[C@@H](C(=O)N(C)[C@H](C(N)=O)[C@@H](C)CC)NC(=O)[C@H](CO)NC(=O)[C@H](Cc2c[nH]cn2)NC(=O)[C@H](C)NC(=O)CN(C)C(=O)[C@H](Cc2c[nH]c3ccccc23)NC(=O)[C@H](CC(=O)O)NC(=O)[C@H](CCC(N)=O)NC(=O)[C@H](Cc2cn(C)c3ccccc23)NC(=O)[C@H](C(C)C)NC1=O [Cp40 R12S] (H-[dY]ICV[Trp(1-Me)]QDW[Sar]AHSC[NMeI]-NH2; disulfide 3-13)		200000	9.9 ± 0.5	140000	180000	220000	10.2	10.3	9.22
CC[C@H](C)[C@H](NC(=O)[C@H](N)Cc1ccc(O)cc1)C(=O)N[C@H]1CSSC[C@@H](C(=O)N(C)[C@H](C(N)=O)[C@@H](C)CC)NC(=O)[C@H](CCCNC(=N)N)NC(=O)[C@H](Cc2c[nH]cn2)NC(=O)[C@H](C)NC(=O)CNC(=O)[C@H](Cc2c[nH]c3ccccc23)NC(=O)[C@H](CC(=O)O)NC(=O)[C@H](CCC(N)=O)NC(=O)[C@H](Cc2cn(C)c3ccccc23)NC(=O)[C@H](C(C)C)NC1=O [Cp40 Sar9G]		900000 ± 400000	1.7 ± 0.7	1.29e+06	1.1e+06	360000	0.92	1.39	2.63
CC[C@H](C)[C@H](NC(=O)[C@H](N)Cc1ccc(O)cc1)C(=O)N[C@H]1CSSC[C@@H](C(=O)N[C@@H](C)C(N)=O)NC(=O)[C@H](CCCNC(=N)N)NC(=O)[C@H](Cc2c[nH]cn2)NC(=O)[C@H](C)NC(=O)CN(C)C(=O)[C@H](Cc2c[nH]c3ccccc23)NC(=O)[C@H](CC(=O)O)NC(=O)[C@H](CCC(N)=O)NC(=O)[C@H](Cc2cn(C)c3ccccc23)NC(=O)[C@H](C(C)C)NC1=O [Cp40 mI14A] (H-[dY]ICV[Trp(1-Me)]QDW[Sar]AHRCA-NH2; disulfide 3-13)		3e+06 ± 1.6e+06		4.23e+06	1.11e+06	3.53e+06			

Further lines, results first:

kd	kon (pH 7.4, read-out: ka) [M⁻¹ s⁻¹]	Kd [1] [nM]	kon [2] [M⁻¹ s⁻¹]	kon [3] [M⁻¹ s⁻¹]	kon [4] [M⁻¹ s⁻¹]	Kd [5] [nM]	Kd [6] [nM]	Kd [7] [nM]	SMILES
0.7 ± 0.0 10-3 s-1	200000								CC[C@H](C)[C@H](NC(=O)[C@H](N)Cc1ccc(O)cc1)C(=O)N[C@H]1CSSC[C@@H](C(=O)N(C)[C@H](C(N)=O)[C@@H](C)CC)NC(=O)[C@H](CCCNC(=N)N)NC(=O)[C@H](Cc2c[nH]cn2)NC(=O)[C@H](C)NC(=O)CN(C)C(=O)[C@H](Cc2c[nH]c3ccccc23)NC(=O)[C@H](CC(=O)O)NC(=O)[C@H](CCC(N)=O)NC(=O)[C@H](Cc2cn(CCC(C)C)c3ccccc23)NC(=O)[C@H](C(C)C)NC1=O [1(3Me)BuW]
0.5 ± 0.2 10-3 s-1	200000								CCCCn1cc(C[C@@H]2NC(=O)[C@H](C(C)C)NC(=O)[C@@H](NC(=O)[C@@H](NC(=O)[C@H](N)Cc3ccc(O)cc3)[C@@H](C)CC)CSSC[C@@H](C(=O)N(C)[C@H](C(N)=O)[C@@H](C)CC)NC(=O)[C@H](CCCNC(=N)N)NC(=O)[C@H](Cc3c[nH]cn3)NC(=O)[C@H](C)NC(=O)CN(C)C(=O)[C@H](Cc3c[nH]c4ccccc34)NC(=O)[C@H](CC(=O)O)NC(=O)[C@H](CCC(N)=O)NC2=O)c2ccccc21 [1BuW]
1.2 ± 0.3 10-3 s-1	700000 ± 300000								CC[C@H](C)[C@H](NC(=O)[C@H](N)Cc1ccc(O)cc1)C(=O)N[C@H]1CSSC[C@@H](C(=O)N(C)[C@H](C(N)=O)[C@@H](C)CC)NC(=O)[C@H](CCCNC(=N)N)NC(=O)[C@H](Cc2c[nH]cn2)NC(=O)[C@H](C)NC(=O)CN(C)C(=O)[C@H](Cc2c[nH]c3ccccc23)NC(=O)[C@H](CC(=O)O)NC(=O)[C@H](CCC(N)=O)NC(=O)[C@H](Cc2cn(CC)c3ccccc23)NC(=O)[C@H](C(C)C)NC1=O [1EtW]
	900000 ± 200000		1.17e+06	650000	730000				CC[C@H](C)[C@H](NC(=O)[C@H](N)Cc1ccc(O)cc1)C(=O)N[C@H]1CSSC[C@@H](C(=O)N(C)[C@H](C(N)=O)[C@@H](C)CC)NC(=O)[C@H](CCCNC(=N)N)NC(=O)[C@H](Cc2c[nH]cn2)NC(=O)[C@H](C)NC(=O)CN(C)C(=O)[C@H](Cc2c[nH]c3ccccc23)NC(=O)[C@H](CCC(=O)O)NC(=O)[C@H](CCC(N)=O)NC(=O)[C@H](Cc2cn(C)c3ccccc23)NC(=O)[C@H](C(C)C)NC1=O [Cp40 D7E] (H-[dY]ICV[Trp(1-Me)]QEW[Sar]AHRC[NMeI]-NH2; disulfide 3-13)
